Source: patent US20250268898A1, “METHODS OF TREATING SYNOVIAL SARCOMA PATHOGENESIS BY SUMO2 INHIBITION” (Sanford Burnham Prebys Medical Discovery Institute, priority 2024, published 2025)
“Also recorded” adds a separate entry of the source.

Tests used:
Aska-SS flank tumors = assay: Flank tumor xenograft in nude mice; format: in vivo
Protocol: (§1) To determine the antitumor activity of Compound 1 in vivo, either Aska-SS cells (harboring the SS18-SSX1 fusion) or SYO1 cells (harboring the SS18-SSX2 fusion) were injected into the flanks of nude mice. When tumors became palpable, mice were treated with 25 mg/kg of Compound 1 or vehicle.
(§2) Flank tumors were harvested, sectioned, and stained with hematoxylin and eosin and analyzed with IHC for tumoricidal markers.

SYO1 flank tumors = assay: Flank tumor xenograft in nude mice; format: in vivo
Protocol: as §1, §2

HS-SY-II cells = assay: Colony-forming assay (crystal violet); format: cell-based, human; conditions: Compound 1 titration series
H2AK119ub [1] = assay: ChIP-sequencing of H2AK119ub; format: cell-based, human
SYO1 cells [2] = assay: Colony-forming assay (crystal violet); format: cell-based, human; conditions: Compound 1 titration series
Protocol: Further testing of Compound 1 was performed on 2D and 3D cultures for SYO1 and Aska-SS cell lines to determine whether these culture conditions resist Compound 1 treatment.

SS18-SSX1 protein = assay: Western blot for SS18-SSX fusion protein levels; format: cell-based, human
Protocol: shRNAs targeting SUMO2 were cloned into a tetracycline-inducible plasmid and expressed in HS-SYII cells. Small hairpin RNAs (shRNAs) for SUMO2 were cloned into the all-in-one-Tet vector and packaged into lentivirus using pMD and pPax2. A cell suspension containing about 300,000 HS-SY-II and SYO1 cells were seeded into six-well culture plates overnight for about 12-14 hours. Transfections were performed with Lipofectamine 2000 reagent. At about 48 hours after transfection, media was changed and puromycin selected for about 2 days. After selection, cells were subjected to a previously determined amount of doxycycline, about 4.5 μg/ml, for about 48 hours. Cells were harvested for qPCR quantification and western blot analysis.
The effect of Compound 1 was compared to the effect of SUMO2 knockdown by shRNA.

SS18-SSX fusion = assay: Spike-in normalized CUT&RUN of SS18-SSX chromatin occupancy; format: cell-based, human
Protocol: Subsequent studies sought to determine the mechanism behind Compound 1 treatment and the observed attenuation of SS18-SSX expression activity. Initial studies utilizing Cleavage Under Targets & Release Using Nuclease (CUT&RUN) focused on determining whether Compound 1 affects the chromatin occupancy of the SS18-SSX fusion protein. […] Since increased H2AK119ub deposition has been linked to the pathogenic activity of the SS18-SSX fusions, H2AK119 ubiquitination was assessed in Compound 1-treated cells.

SYO1 cells [3] = assay: CellTiter-Glo viability, 2D and 3D cultures; format: cell-based, human; conditions: over 2, 3, and 4 days
Protocol: (§3) To investigate whether the reduction of proliferation by Compound 1 was due to apoptosis and necrosis in synovial sarcoma cell lines, flow cytometric analyses were performed with cells treated with Compound 1 and untreated cells stained with Annexin V-FITC apoptosis marker, as well as Propidium Iodide necrosis marker for cells in media containing Compound 1 and media only containing DMSO. The proliferation assay was performed using Cell Titer Glo Luminescent Cell Viability Assay (Promega). Cell numbers were optimized for 384-well plate for each cell line. SUMO2 inhibitors including Compound 1 were dissolved in DMSO and echo dotted onto a 384-well plate in varying concentrations, with the final concentration of DMSO at about 0.08% in each well. About 25 μL of cell suspension, a concentration of about 50,000 cells/mL were seeded in each well of a 384-well plate. […] Luminescence was recorded with a plate reader (BMG FLUOStar). The EC50 values were calculated by Graphpad Prism software. Apoptosis was quantified by flow cytometry using Annexin V-FITC kit from BD Biosciences. […] The samples were then analyzed by flow cytometry using Fortessa along with FlowJo analysis software. Cell lines analyzed were HS-SY-II (left) and SYO1 (right) (FIG. 3G). […]

HS-SY-II and SYO1 cells = assay: Total RNA sequencing, Compound 1 vs DMSO; format: cell-based, human
Protocol: To comprehensively interrogate the transcriptomic changes occurring in synovial sarcoma cells, HS-SY-II and SYO1 cells were cultured in media containing DMSO and media containing Compound 1 and subjected to total RNA sequencing. HS-SY-II and SYO1 cells were contacted with either Compound 1 at concentrations of between about 25 nM and about 100 nM, or DMSO for 48 hours. The cell suspensions were pelleted, and RNA was extracted with varying concentrations. TRIzol Reagent was used to extract total RNA from SYO1, and HS-SY-II cell pellets, and strands were synthesized using Protoscript II (NEB) with poly A selection. qPCR was performed using TaqMan Gene Expression Master Mix and FAM probes for SUMO2, HPRT, and GAPDH. Paired-end (2×100 bp) sequencing was performed on the NovaSeq 6000 Sequencing System. Data Processing and QC was completed using FastQC and QC summarization was done by MultiQC. Mapping to human genome hg38 v84 was done using STAR sequence aligner, and expression was estimated using RSEM. DESeq2 was used for differential expression analysis, and IPA algorithm was used in evaluation of upstream pathway regulators.
The RNA-seq reads were analyzed for each sample to the human reference genome GRCh38 using STAR aligner. Expression estimation was conducted using RSEM followed by differential expression calling using DESeq2. For target genes of interest in both HS-SY-II and SYO1, a total of 960 differentially expressed target genes of interest (DEGs) were analyzed using […] (FIG. 4A).
Upregulation of target genes of interest activated by the chimeric SS18-SSX fusion protein in DMSO media and in media containing Compound 1 were mapped with size and […] (FDR) quantified, based on […] (NES) values (FIG. 4D). Expression of various target genes of interest, upregulation, and downregulation by SS18-SSX fusion genomes, were measured in contact with varying concentrations of Compound 1 (FIG. 4E). Heat maps were created mapping the various target genes of interest cultured in media containing only DMSO, compared to media containing Compound 1, for multiple samples (FIG. 4F-4G). Enrichment scores were calculated using gene set enrichment analysis for HS-SY-II cells in contact with DMSO and varying concentrations of Compound 1 for target genes of interest (FIG. 4H). Additional experiments comparing gene expression differences due to DMSO or Compound 1 on SYO-II and HS-SY-II cells were performed. Not only were SS18-SSX-regulated genes affected by Compound 1 treatment, but other genes also impacted included the HOX genes: HOXC6, HOXA10 as well as SRSF1 and TYMS. (FIG. 4I).

[4] = biological target: T1, Sumo-Activating Enzyme 1 (SAE1) or Sumo-Activating Enzyme 2 (SAE2) (Homo sapiens, UniProt Q9UBE0+Q9UBT2); assay: Interruption of the SUMO cycle (SAE inhibition); conditions: E1 Ligase Activation step
T1 sequence (Q9UBE0 1-346): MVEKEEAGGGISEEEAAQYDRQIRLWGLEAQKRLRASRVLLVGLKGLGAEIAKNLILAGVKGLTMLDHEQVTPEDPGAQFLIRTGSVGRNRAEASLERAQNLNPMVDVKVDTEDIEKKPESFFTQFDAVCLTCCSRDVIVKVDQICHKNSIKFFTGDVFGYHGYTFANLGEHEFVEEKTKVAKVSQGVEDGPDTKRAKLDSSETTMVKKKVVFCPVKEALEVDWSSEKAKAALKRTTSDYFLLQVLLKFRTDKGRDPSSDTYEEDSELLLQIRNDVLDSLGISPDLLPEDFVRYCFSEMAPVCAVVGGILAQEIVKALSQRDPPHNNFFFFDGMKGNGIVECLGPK
T1 sequence (Q9UBT2 1-640): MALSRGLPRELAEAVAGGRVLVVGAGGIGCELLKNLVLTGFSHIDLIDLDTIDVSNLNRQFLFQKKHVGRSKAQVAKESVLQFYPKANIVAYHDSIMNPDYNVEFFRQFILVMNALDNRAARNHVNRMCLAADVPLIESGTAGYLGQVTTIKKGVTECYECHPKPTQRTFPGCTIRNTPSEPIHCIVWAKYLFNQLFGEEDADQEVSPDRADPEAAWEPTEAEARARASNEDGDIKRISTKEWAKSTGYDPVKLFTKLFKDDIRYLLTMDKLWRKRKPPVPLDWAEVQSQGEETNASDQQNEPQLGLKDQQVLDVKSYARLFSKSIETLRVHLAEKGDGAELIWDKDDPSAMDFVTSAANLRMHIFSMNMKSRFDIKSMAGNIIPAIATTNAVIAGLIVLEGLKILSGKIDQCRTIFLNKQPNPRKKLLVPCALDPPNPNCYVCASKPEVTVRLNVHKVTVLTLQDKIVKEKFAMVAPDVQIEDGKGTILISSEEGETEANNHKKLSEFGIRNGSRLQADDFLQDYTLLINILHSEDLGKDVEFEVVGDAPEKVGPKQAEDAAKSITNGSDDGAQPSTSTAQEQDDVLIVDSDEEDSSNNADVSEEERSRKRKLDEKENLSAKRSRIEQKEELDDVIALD

H2AK119ub [5] = assay: H2AK119ub immunoblotting; format: cell-based, human
Aska-SS cells = assay: CellTiter-Glo viability, 2D and 3D cultures; format: cell-based; conditions: over 2, 3, and 4 days
Protocol: as §3

12273/99 cells = assay: Colony-forming assay (crystal violet); format: cell-based, human; conditions: Compound 1 titration series
[6] = 25 mg/kg, 3 intraperitoneal injections a week for 5 weeks, vs vehicle
[7] = Ki-67 staining of tumor sections, vs vehicle-treated tumors
[8] = harvested flank tumors, vs vehicle-treated tumors

In the case of Cc1sc(C(=O)c2cncnc2N[C@@H]2C[C@H](COS(N)(=O)=O)[C@@H](O)C2)cc1[C@@H]1NCCc2ccc(Cl)cc21 [Compound 1], the tumor growth (Aska-SS flank tumors; [6]) is reported as “reduction of tumor growth”, the tumor volumes (Aska-SS flank tumors; [6]) is reported as “significantly reduced” and the tumor weights (Aska-SS flank tumors; [6]) is reported as “significantly reduced”. For the same molecule, the “decrease in Ki67 positivity” value (Aska-SS flank tumors; [7]) was about 60%, the “number of cells per unit area (tumor cellularity, hematoxylin and eosin)” value (Aska-SS flank tumors; [8]) was “marked reduction” and the tumor growth (SYO1 flank tumors; [6]) was “reduction of tumor growth”. The tumor volumes (SYO1 flank tumors; [6]) was “significantly reduced”, the tumor weights (SYO1 flank tumors; [6]) was “significantly reduced” and the “decrease in Ki67 positivity” value (SYO1 flank tumors; [7]) was about 60%. The “number of cells per unit area (tumor cellularity, hematoxylin and eosin)” value (SYO1 flank tumors; [8]) was “marked reduction”, the colony formation (HS-SY-II cells) was “dramatic and dose-dependent reduction in colony formation” and the “H2AK119ub at GADD45B” value (H2AK119ub [1]) was “reduced H2AK119ub”. For the same molecule, the “reduction of genome-wide H2AK119ub levels (FRiP)” value (H2AK119ub [1]; SYO1 cells, versus DMSO-treated) was 1.53 fold, the H2AK119ub genome-wide (H2AK119ub [1]; compared to DMSO-treated cells) was “substantial reduction” and the colony formation (SYO1 cells [2]) was “dramatic and dose-dependent reduction in colony formation”. For the same molecule, the “levels of SS18-SSX1 protein” value (SS18-SSX1 protein; HS-SY-II cell line) was “reduction in the levels”, the “levels of SS18-SSX1 fusion” value (SS18-SSX1 protein; SYO1 cell lines) was “reduction in the levels” and the “SS18-SSX fusion occupancy at SS18-SSX-repressed target GADD45B” value (SS18-SSX fusion) was “diminished SS18-SSX fusion occupancy; also recorded: decrease of SS18-SSX occupation of this gene”. The “SS18-SSX occupancy at SS18-SSX-activated targets HOXA10 and SOX8” value (SS18-SSX fusion) was “lost SS18-SSX occupancy; also recorded: decrease of SS18-SSX occupation”, the “SS18-SSX2 fusion genomic occupancy” value (SS18-SSX fusion; Compound 1-treated compared to vehicle-treated arms) was “substantial decrease” and the “reduction in genome-wide chromatin binding signal of the SS18-SSX fusion (FRiP)” value (SS18-SSX fusion; SYO1 cells, compared to DMSO treated cells) was 1.87 fold. The “fusion-binding signal at synovial sarcoma target genes (meta-analysis)” value (SS18-SSX fusion; maximum signal centered around the transcription start site) was “reduction in the fusion binding”, the “viability as measured by CellTiter-Glo” value (SYO1 cells [3]) was “progressive and marked decrease in viability; also recorded: affected in a Compound 1 concentration-dependent manner” and the “expression of GADD45B” value (HS-SY-II and SYO1 cells) was “increased expression (de-repression); also recorded: increase in its expression”. For the same molecule, the “expression of HOXA10 and SOX8” value (HS-SY-II and SYO1 cells) was “reduced expression”, the “expression of key cancer-associated genes upregulated by the SySa fusion (CDX2, HOXA10, SUZ12, TYMS, AURKB, HOXC10, SMC2)” value (HS-SY-II and SYO1 cells; HS-SY-II and SYO1, vs DMSO) was “downregulated” and the “expression of HOXC6, HOXA10, SRSF1 and TYMS” value (HS-SY-II and SYO1 cells; SYO1 and HS-SY-II cells, vs DMSO) was “impacted”. The “expression of SS18-SSX-regulated genes” value (HS-SY-II and SYO1 cells; SYO-II and HS-SY-II cells, vs DMSO) was “affected”, the “interruption of the SUMO cycle” value [4] was “interrupt the SUMO cycle at the E1 Ligase Activation step” and the H2AK119ub by immunoblotting (H2AK119ub [5]; 1273/99 cell line) was “marked reduction”. For the same molecule, the H2AK119ub by immunoblotting (H2AK119ub [5]; Aska cell line) was “marked reduction”, the H2AK119ub by immunoblotting (H2AK119ub [5]; HS-SY-II cell line) was “marked reduction” and the H2AK119ub by immunoblotting (H2AK119ub [5]; SYO1 cell line) was “marked reduction”. The “viability as measured by CellTiter-Glo” value (Aska-SS cells) was “progressive and marked decrease in viability; also recorded: affected in a Compound 1 concentration-dependent manner” and the colony formation (12273/99 cells) was “dramatic and dose-dependent reduction in colony formation”.
